“Also recorded” adds a separate entry of the source.
How the values were obtained:
Akt = test: pAkt levels in BT20 cells; assay type: cell-based; conditions: 5 μM; BT20, constitutively activated Akt
[1] = system: MDA-MB-231 and SUM149 cells; test: Vasculogenic mimicry exhibited by breast cancer cells; assay type: cell-based; conditions: 5 μM in DMSO; 24 hours
Description: Cells were treated with 5 μM of the compounds from examples 1 and 8 formulated in DMSO or with DMSO alone as a control. To highlight the matrix-associated vascular channels that were formed, cells were stained with periodic acid-Schiff (PAS) reagent. Representative photographs were taken at 24 hours at —10 magnification. Each experiment was repeated 3 times.

[2] = system: xenografts of MDA-MB-468 cells; test: MDA-MB-468 xenograft in nude mice, intratumoral injection; assay type: in vivo
Description: After 15 days mice were separated into three groups. Group 1 received PBS, group 2 received 20% hydroxypropyl-β-cyclodextrin (Trappsol) in PBS and group 3 received 10 mM of the compound in 20% Trappsol/PBS. Injections of 50 μL were made directly into the tumors. PBS is a phosphate buffered saline having pH7. Mice were treated daily for 5 days, given two days of rest and were treated for 5 days. On day 16 mice were treated and two hours later tumors were harvested, divided into two parts. The first part was frozen and the other was fixed in formalin for immunohistochemistry. Average tumor volume increased 2.3 and 2.5-fold in PBS and Trappsol/PBS vehicle controls, respectively.
Efficacy of Compound of Example 1 in animal models. […] Nu/nu Nude mice were injected in the mammary fat pad with 2×10^6 MDA-MB-468 cells suspended in matrigel. After 15 days mice were separated into three groups. Group 1 received PBS, group 2 received 20% hydroxypropyl-β-cyclodextrin (Trappsol) in PBS and group 3 received 10 mM of the compound of Example 1 in 20% Trappsol/PBS. PBS is a phosphate buffered saline with pH7. Injections of 50 μL were made directly into the tumors. Mice were treated daily for 5 days, given two days of rest and were treated for 5 days. On day 16 mice were treated and two hours later tumors were harvested, divided into two parts. The first part was frozen and the other was fixed in formalin for immunohistochemistry.

STAT3 = STAT3 (Homo sapiens, UniProt P40763); test: Inhibition of STAT3 phosphorylation in BT20 breast tumor cells (western blot); assay type: cell-based; set-up: endogenous in cells; host or cells: BT20 breast tumor cells
Sequence of STAT3 (P40763 whole entry): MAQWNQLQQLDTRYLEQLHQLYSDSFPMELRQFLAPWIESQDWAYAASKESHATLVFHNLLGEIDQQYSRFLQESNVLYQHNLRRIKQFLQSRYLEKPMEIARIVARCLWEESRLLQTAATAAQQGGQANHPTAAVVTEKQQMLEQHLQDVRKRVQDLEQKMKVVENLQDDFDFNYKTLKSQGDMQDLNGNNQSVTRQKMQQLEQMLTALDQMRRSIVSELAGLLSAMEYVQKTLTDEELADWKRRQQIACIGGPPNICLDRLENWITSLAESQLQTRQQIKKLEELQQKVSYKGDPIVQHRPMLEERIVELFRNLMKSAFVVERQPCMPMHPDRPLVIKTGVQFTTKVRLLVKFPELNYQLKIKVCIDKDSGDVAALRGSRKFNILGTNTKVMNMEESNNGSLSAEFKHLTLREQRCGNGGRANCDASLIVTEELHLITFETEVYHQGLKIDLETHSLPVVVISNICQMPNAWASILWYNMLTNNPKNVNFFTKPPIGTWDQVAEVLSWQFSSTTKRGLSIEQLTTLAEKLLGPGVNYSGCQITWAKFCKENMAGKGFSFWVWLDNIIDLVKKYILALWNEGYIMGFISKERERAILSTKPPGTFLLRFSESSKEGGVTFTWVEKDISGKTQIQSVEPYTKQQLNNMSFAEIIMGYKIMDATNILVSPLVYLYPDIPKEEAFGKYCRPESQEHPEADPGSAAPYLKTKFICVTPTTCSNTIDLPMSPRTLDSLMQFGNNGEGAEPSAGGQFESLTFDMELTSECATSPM
Description: Inhibition of STAT3 in BT20 Breast Tumor Cells. General procedure: 35 mm petri dishes were plated with 300,000 BT20 cells in 2 mL RPMI1640 media containing 10% FBS, […], streptomycin, and glutamine. Prodrugs were dissolved in DMSO and were added to the cells with fresh media at varying concentrations. After 2 h the cells were washed with ice cold phosphate buffered saline. Washed cells were treated with lysis buffer (50 mM Hepes, pH 7.4, 150 mM NaCl, 1.5 mM MgCl2, 1 mM EGTA, 100 mM NaF, 10 mM sodium pyrophosphate, 10% glycerol, 1% Triton X-100, 1 mM PMSF, 1 mM Na3VO4, 10 μg/mL leupeptin and 10 μg/mL aprotinin). Cell-free detergent extracts were centrifuged at 15,000 rpm in a microcentriguge for 30 min at 4° C. and the protein concentrations of the supernatants determined. Aliquots containing 12 μg of protein were separated on 8% SDS-PAGE and were transferred to PVDF filters. The filters were blocked with 5% bovine serum albumin and were probed with pStat3^Y705 antibody followed by secondary antibody, whose signal was detected with an enhanced chemiluminescence kit (ECL, Amersham, Chicago, Ill.). Filters were stripped with stripping buffer (62.5 mM Tris, pH 6.8, 2% SDS, and 0.1 M 2-mercaptoethanol) at 50° C. for 30 min. Filters were then probed with total Stat3 antibody and visualized with chemiluminescence as above.
Because DMSO is toxic, other formulations were evaluated for potential use in animal models. The compound of Example 1 was dissolved in EtOH, 20% (w/v) Trappsol (hydroxypropyl β-cyclodextran, pharmaceutical grade), or a liposomal formulation to a concentration of 5 mM. These formulations were given to cells at 0.1, 0.5, and 5 μM concentrations. At two hours, cells were lysed and pSTAT3 levels were determined by Western Blot (FIG. 3). Different formulations have little effect on inhibition of STAT3. The compound of Example 1 was dissolved in DMSO, EtOH, Trappsol, or as a 10 mol % mixture in dimyristoylphosphatidyl choline and applied to BT20 cell in culture. After two hours, cells were lysed and pSTAT3 levels determined by Western blot. To prepare liposomes a solution of 1.0 mg of the compound of Example 1, 7.2 mg of DMPC, 0.41 mg of Tween 20 in 1.0 mL of tert-butanol was lyophilized. A control lipid formulation of 7.2 mg of DMPC and 0.41 mg of Tween 20 in 1.0 mL of tert-butanol was lyophilized. These samples were mixed with 236 μL of H2O and were vortexed and sonicated for 5 min.
The compounds are selective for STAT3 over STAT1 in BT20 breast tumor cells. BT20 cells prepared as above and were treated with 5 μM of the compound of Example 1 for two hours then were treated with 25 ng/mL of interferon γ (IFNγ). […] (FIG. 4, bottom panel).
Time course of inhibition of STAT3 phosphorylation in BT20 cells. BT20 cells were plated as above and treated with the compounds from Examples 1 and 6 and western blots were performed at varying time intervals.

normal cells = test: Effect on normal cells in the cell growth assay; assay type: cell-based
Description: Lung Tumor Cell Viability Assay: H1819, H1299 and H827 lung tumor cells were seeded in 6-well plates at a density of 6×10^4, 4×10^4 and 5×10^4 cells/well, respectively. Prodrugs were dissolved in DMSO to make a stock concentration of 500 μM. The following day the cells were treated either with DMSO alone or with 0.25 μM, 0.5 μM, 1.0 μM, 2.5 μM and 5.0 μM of the compounds from Example 1, Example 16, and Example 22. Seventy two h after treatment with the drug the cells were subjected to cell viability assay using trypan blue. […] Cells were plated and after 24 hr were treated with the compound of Example 16 in DMSO. After 72 hr, cells were counted. Note that vertical axes are different for each plot.

phosphorylation of STAT3 at the indicated time points (STAT3; 5 μM, BT-20 cells)	selectivity for STAT3 over STAT1 and AKT (STAT3; BT20 cells)	pSTAT3 inhibition compared with DMSO sample (STAT3; dissolved in EtOH, 0.5 and 5 μM, 2 h, BT20)	pSTAT3 inhibition compared with DMSO sample (STAT3; in 20% Trappsol HPB, 0.5 and 5 μM, 2 h, BT20)	pSTAT3 inhibition compared with DMSO sample (STAT3; liposomal preparation (DMPC/Tween 20), 2 h, BT20)	SMILES	pAkt levels (Akt)	vasculogenic mimicry [1]	growth of breast tumor xenograft ([2]; 10 mM in 20% Trappsol/PBS, 50 μL intratumoral)	increase in average tumor volume ([2]; 10 mM in 20% Trappsol/PBS, 50 μL intratumoral, vehicles 2.3 and 2.5-fold) [fold]	tumor center histology (cellularity, necrosis) ([2]; centers / interior of tumors)	tumor vascularity (CD31 staining, microvessels) ([2]; centers / interior of tumors)	Ki-67 staining of proliferating cells ([2]; treated tumors)	phosphorylation of STAT3 in treated tumors vs vehicle controls ([2]; tumors harvested 2 h after last treatment)	increase in pSTAT3 formation on EGF stimulation (STAT3; 5 μM, 2 h, then EGF 50 ng/mL, BT20)	pSTAT3 inhibition compared with DMSO sample (STAT3; dissolved in EtOH, 0.1 μM, 2 h, BT20)	pSTAT3 inhibition compared with DMSO sample (STAT3; in 20% Trappsol HPB, 0.1 μM, 2 h, BT20)	effect on normal cells compared to vehicle DMSO (normal cells)
inhibit the phosphorylation of STAT3	selective for STAT3 over STAT1 and AKT	comparable	comparable	inhibition comparable to DMSO	C/C(=C\C(=O)N[C@H]1CCc2cccc3c2N(C1=O)[C@H](C(=O)N[C@H](C)CCC(N)=O)C3)c1ccc(C(F)(F)P(=O)(OCOC(=O)C(C)(C)C)OCOC(=O)C(C)(C)C)cc1 [Example 1, (2E)-3-[4-[[bis[(2,2-dimethyl-1-oxopropoxy)methoxy]phosphinyl]difluoromethyl]phenyl]-but-2-enoyl-Haic-(R)-4-aminopentamide]	no effect	Significant reduction	inhibited; also recorded: inhibits the growth	1.6	necrosis; also recorded: notably acellular	avascular	decrease in Ki-67 staining	reduced; also recorded: strongly inhibited	inhibited the increase in pSTAT3 formation	did not inhibit as much as did the DMSO sample	did not inhibit as much as did the DMSO sample	
					CCCC[C@H](NC(=O)/C=C(\C)c1ccc(C(F)(F)P(=O)(OCOC(=O)C(C)(C)C)OCOC(=O)C(C)(C)C)cc1)C(=O)N1C[C@H]2CC2[C@H]1C(=O)N[C@@H](CCC(N)=O)[C@@H](C)OCc1ccccc1 (stereo partly drawn) [Example 16, (2E)-3-[4-[[bis[(2,2-dimethyl-1-oxopropoxy)methoxy]phosphinyl]difluoromethyl]phenyl]-but-2-enoyl-norleucinyl-(2S,3R,4S)-methanoprolinyl-(4S,5R)-4-amino-5-benzyloxyhexamide]												negligible effects

— patent US8841257B2, “Inhibitors of STAT3 and uses thereof” (Board of Regents, The University of Texas System, priority 2009, dated 2014)
